Where “and” joins values, the source holds several entries; their conditions need not be identical. Equal entries are not always repeated. Where two headings read alike, the source gives them in different places.
Tests used:
[1] = tested on: human colorectal cancer cells (HT-29); settings: for Tumor Regression Complete / Tumor Regression Partial: n=10 mice; for Tumor Regression Complete: complete: unpalpable; for Tumor Regression Partial: partial: <50% of size on day 1; for T − C (tumor growth delay): median time to 2 times original size, drug group minus control; for Days to 2 Times Tumor Weight: median
Experimental: Female athymic (Ncr:Nu) mice were implanted subcutaneously with HT-29 tumor fragments and the tumors were allowed to reach a weight range of 162 to 188 mg. […] The control group received normal saline. The animals were weighed and the tumors measured twice weekly after administration of the first drug injection.

[2] = tested on: oropharyngeal carcinoma cancer cells (KB)
Experimental: Female athymic (Ncr:Nu) mice were implanted subcutaneously with KB tumor fragments and the tumors were allowed to reach a weight range of 160 to 190 mg. […] The control group received normal saline. The animals were weighed and the tumors measured twice weekly after administration of the first drug injection.

[3] = tested on: platinum resistant ovarian cancer cells (A2780/DDPt); settings: for Days to 3 Times Tumor Weight: median; for T − C (tumor growth delay): median time to 3 times original size, drug group minus control; for Persistence of tumor growth delay profiles: FIGS. 2A and 2B, dotted lines
Experimental: Female athymic (Ncr:Nu) mice were implanted subcutaneously with A2780/DDPt tumor fragments and the tumors were allowed to reach a weight range of 163 to 189 mg. […] One group of animals was treated with cisplatin at a dose of 8 mg/kg. The control group received normal saline. The animals were weighed and the tumors measured twice weekly after administration of the first drug injection.

[4] = 40 mg/kg i.v. every fourth day x3
[5] = 60 mg/kg i.v. every fourth day x3
[6] = 90 mg/kg i.v. every fourth day x3
[7] = 40, 60 or 90 mg/kg i.v. every fourth day x3
[8] = all doses (40, 60, 90 mg/kg i.v.)
[9] = any of the doses (40, 60, 90 mg/kg)

CCc1c2c(nc3ccc(OC(=O)N4CCC(N5CCCCC5)CC4)cc13)-c1cc3c(c(=O)n1C2)COC(=O)[C@]3(O)CC [Irinotecan]
Tumor Regression Complete [1, 4]: 0 | Tumor Regression Partial [1, 4]: 0 | T − C (tumor growth delay) ([1]; 40 mg/kg): 8.8 days | Days to 2 Times Tumor Weight [1, 5]: 21.4 days | Tumor Regression Complete [1, 5]: 0 | Tumor Regression Partial [1, 5]: 0 | Tumor Regression Complete [1, 6]: 0 | Tumor Regression Partial [1, 6]: 0 | Decrease in tumor growth compared to the control group ([1]; 40, 60, 90 mg/kg groups): did not show a statistically significant decrease | Maximum loss in body weight [1, 7]: 8% | Tolerability [1, 8]: well tolerated | Tumor regression [1, 9]: not observed | Tolerability [2, 8]: well tolerated | Tumor regression [2, 9]: not observed | Maximum loss in body weight ([2]; mouse, in vivo): 2% | Days to 3 Times Tumor Weight [3, 4]: 13.0 days | T − C (tumor growth delay) ([3]; 40 mg/kg): 4.6 days | Days to 3 Times Tumor Weight [3, 5]: 16.4 days | T − C (tumor growth delay) ([3]; 60 mg/kg): 8.0 days | Days to 3 Times Tumor Weight [3, 6]: 18.6 days | T − C (tumor growth delay) ([3]; 90 mg/kg): 10.2 days | Decrease in tumor growth compared to the control group ([3]; 40, 60, 90 mg/kg groups): did not show a statistically significant decrease | Maximum loss in body weight [3, 7]: 2% | Persistence of tumor growth delay profiles [3]: 14 days | Tolerability [3, 8]: well tolerated

N.N.[Cl][Pt][Cl] [Cisplatin]
Days to 3 Times Tumor Weight ([3]; 8 mg/kg): 8.9 days | T − C (tumor growth delay) ([3]; 8 mg/kg): 0.5 days

H-(Irino.HCl)10(EOZ)200-T-PA [POZ-irinotecan]
Days to 2 Times Tumor Weight [1, 4]: 31.4 days | Tumor Regression Complete [1, 4]: 0 | T − C (tumor growth delay) ([1]; 40 mg/kg): 23.4 days | Median Duration of Regression [1, 5]: 18 days | Days to 2 Times Tumor Weight [1, 5]: >60.0 days | Tumor Regression Complete [1, 5]: 1 | T − C (tumor growth delay) ([1]; 60 mg/kg): >52 days | Median Duration of Regression [1, 6]: 25 days | Days to 2 Times Tumor Weight [1, 6]: >60.0 days | Tumor Regression Complete [1, 6]: 7 | T − C (tumor growth delay) ([1]; 90 mg/kg): >52 days | Tumor growth delay (T-C value) compared to irinotecan ([1]; all 3 doses tested, p<0.001): significantly higher | Days to 3 Times Tumor Weight [3, 4]: 12.7 days | T − C (tumor growth delay) ([3]; 40 mg/kg): 4.3 days | Days to 3 Times Tumor Weight [3, 5]: 20.3 days | T − C (tumor growth delay) ([3]; 60 mg/kg): 11.9 days | Tumor growth delay (T-C value) compared to irinotecan ([3]; 90 mg/kg dose, p<0.001): significantly higher | Days to 3 Times Tumor Weight [3, 6]: 36.3 days | T − C (tumor growth delay) ([3]; 90 mg/kg): 27.9 days | Persistence of tumor growth delay profiles [3]: at least 32 days

H-(Irino.HCl)10(EOZ)190-T-Folate [Folate-POZ-irinotecan]
Complete tumor regression, share of mice ([2]; mouse, in vivo): 70% and 50% | Complete tumor regression, share of treated mice ([2]; mouse, in vivo): > 50% | Tumor growth delay (T-C value) compared to irinotecan ([2]; mouse, in vivo): significantly higher
